Test results published in PubChem BioAssay (NCI).
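Each compound was tested at five concentrations against cells in 96-well plates for 48 hours. GI50 = concentration required for 50% inhibition of growth. TGI denotes the concentration required for complete inhibition of growth.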

Columns and labels:
Assay in all cases: NCI tumour cell line growth inhibition, 48 h
TK-10 renal = test system: TK-10 renal
OVCAR-3 ovarian = test system: OVCAR-3 ovarian
786-0 renal = test system: 786-0 renal
IGROV1 ovarian = test system: IGROV1 ovarian
K-562 leukemia = test system: K-562 leukemia
EKVX NSCLC = test system: EKVX NSCLC
HL-60(TB) leukemia = test system: HL-60(TB) leukemia
SN12C renal = test system: SN12C renal
T-47D breast = test system: T-47D breast
HCT-15 colon = test system: HCT-15 colon

| Compound | GI50 (TK-10 renal) | TGI (TK-10 renal) | GI50 (OVCAR-3 ovarian) | TGI (OVCAR-3 ovarian) | GI50 (786-0 renal) | TGI (786-0 renal) | GI50 (IGROV1 ovarian) | TGI (IGROV1 ovarian) | GI50 (K-562 leukemia) | TGI (K-562 leukemia) | GI50 (EKVX NSCLC) | TGI (EKVX NSCLC) | GI50 (HL-60(TB) leukemia) | TGI (HL-60(TB) leukemia) | GI50 (SN12C renal) | TGI (SN12C renal) | GI50 (T-47D breast) | TGI (T-47D breast) | GI50 (HCT-15 colon) | TGI (HCT-15 colon) |
| --- | --- | --- | --- | --- | --- | --- | --- | --- | --- | --- | --- | --- | --- | --- | --- | --- | --- | --- | --- | --- |
| Cc1ccncc1C(N)=O | > 100 µM | > 100 µM | > 100 µM | > 100 µM | > 100 µM | > 100 µM | > 100 µM | > 100 µM | > 100 µM | > 100 µM | > 100 µM | > 100 µM | > 100 µM | > 100 µM | > 100 µM | > 100 µM | > 100 µM | > 100 µM | > 100 µM | > 100 µM |
| COc1cccc(Oc2ccccc2NC(=O)CNC(=O)c2cccc3ccccc23)c1 | 1.58 µM | > 25 µM | 0.0999 µM | 1.25 µM | 0.183 µM | > 25 µM | 1.04 µM | > 25 µM | 0.13 µM | > 25 µM | 1.28 µM | > 25 µM | 0.081 µM | 0.237 µM | 1.44 µM | > 25 µM | 0.138 µM | 17.6 µM | 0.129 µM | > 25 µM |
| CSc1ccc(C2=NN(C(C)=O)C(c3ccc(-c4ccc(Cl)cc4)o3)C2)cc1 (configuration not stated) | 37.3 µM | > 100 µM | 21 µM | 80.9 µM | 38.8 µM | > 100 µM | 6.06 µM | > 100 µM | 31.5 µM | > 100 µM | 50.2 µM | > 100 µM | 15.3 µM | > 100 µM | 21.7 µM | 40.6 µM | 17.9 µM | 79.6 µM | 23.2 µM | > 100 µM |
| Nc1n[nH]c2ccc([C@@H]3Nc4cc5c(cc4[C@H]4C6CCC(C6)[C@@H]34)C(=O)NC5)cc12 (some centres not stated) | 70.1 µM | > 100 µM | 0.305 µM | 1.19 µM | 0.557 µM | > 100 µM | 0.417 µM | > 100 µM | 0.131 µM | > 100 µM | 0.734 µM | > 100 µM | 0.282 µM | – | 0.473 µM | > 100 µM | – | > 100 µM | 0.601 µM | > 100 µM |
| CC(=O)O[C@@H]1C[C@@]2(C)[C@@H]3CC=C4[C@@H](C[C@H](O)C(=O)C4(C)C)[C@]3(C)C(=O)C[C@]2(C)[C@H]1[C@@](C)(O)C(=O)/C=C/C(C)(C)OC(C)=O | – | > 37.8 µM | – | > 100 µM | – | > 70.4 µM | – | 10.2 µM | – | > 100 µM | – | 26 µM | – | > 20.1 µM | – | > 44.8 µM | – | > 67.8 µM | – | 12.3 µM |
| CN1CCN(CCCCCN=c2cc3c(=O)n(CCCCCN4CCN(C)CC4)c(=O)c4c(NCCCCCN5CCN(C)CC5)cc5c(O)n(CCCCCN6CCN(C)CC6)c(=O)c2c5c4-3)CC1 | 10.6 µM | 77.2 µM | 3.23 µM | 9.92 µM | > 100 µM | > 100 µM | 5.7 µM | 29.4 µM | 3.62 µM | > 100 µM | 2.93 µM | 17.2 µM | 7.16 µM | 59 µM | 2.55 µM | 9.73 µM | 3.59 µM | 25.4 µM | > 100 µM | > 100 µM |
| O=Nc1c(-c2c(O)[nH]c3ncccc23)[nH]c2ccccc12 | 5.52 µM | > 100 µM | > 100 µM | > 100 µM | 21.8 µM | > 100 µM | 1.72 µM | > 100 µM | – | > 100 µM | 1.32 µM | > 100 µM | 7.58 µM | > 100 µM | 5.86 µM | > 100 µM | 2.99 µM | > 100 µM | 3.92 µM | > 100 µM |
